{"source": "patent US11673965B2", "about": "“Method of treating metastatic triple negative breast cancer with radiotherapy combined with phosphatidyl inositol-3 kinase delta/gamma inhibitors and anti-PD-1 antibodies” (Seoul National University R&DB Foundation, priority 2019, dated 2023)", "tested_on": "4T1-luc triple negative breast cancer cells", "assay": "Size change of tumor in triple negative breast cancer allograft mouse model", "format": "in vivo, mouse (BALB/c)", "settings": "31st day; 4T1-luc allograft; duvelisib 4 mg/kg and/or PD-1 blockade 10 mg/kg by injection 6 times; RT 8 Gy×3", "description": "A triple negative breast cancer cell line (4T1-luc) was cultured in DMEM (Dulbecco's Modified Eagle's Medium, CORNING™) medium containing 10% (v/v) fetal bovine serum (FBS) and 1% (w/v) Penicillin-Streptomycin, using a cell culture flask, in a thermostat cell culture device under the condition of 37° C., 5% CO2.\n6×10^5 4T1-luc triple negative breast cancer cells prepared in Example 1-1 were injected to the right hindlimb of a BALB/c female age standard (8 weeks) mice. At the 10th day after injecting each of the cancer cells, the mice with the tumor volume up to 40 mm^3 were selected, and were used for later experiments.\nThe triple negative breast cancer (TNBC) mouse model prepared by the method of Example 1-2 was assigned to 7 groups in total from the 10th day after cancer cell transplantation, and each treatment method was performed, and it was grouped into 7 groups so that the tumor mean volume of 7 mice was 40 mm^3 per group, and were used for later experiments.\nEach treatment was progressed for 31 days after tumor transplantation. […]\nOn the day of each treatment, the size of tumor, the length and width were measured using Vernier caliper, and then the volume (mm^3) of tumor was calculated by the method of the following equation 1. […]", "data": [{"compound": "C[C@H](Nc1ncnc2nc[nH]c12)c1cc2cccc(Cl)c2c(=O)n1-c1ccccc1", "note": "[PI3K γ δ inhibitor, duvelisib]", "values": [{"measurement": "Mean tumor volume", "value": 786.59, "unit": "mm^3"}]}]}
